In ChEMBL document CHEMBL5154800, “Identification of N, C-capped di- and tripeptides as selective immunoproteasome inhibitors” (Eur J Med Chem, 2022):
Non-standard residues stand in square brackets, D forms with d. Residues, ends and D or L forms follow the SMILES beside them. *: point of attachment. 4Amb = NCc1ccc(C(=O)O)cc1; NHtBu = CC(C)(C)N*; ClAc = O=C(CCl)*; βAla = NCCC(=O)O

Experiments:
[1] = Selectivity ratio of IC50 for inhibition of 20S proteasome beta 5c subunit (unknown origin) to IC50 for inhibition of 20S proteasome subunit beta-5i
[2] = target: T1, Proteasome Macropain subunit MB1 (Homo sapiens, UniProt P28074); test: Inhibition of 20S proteasome subunit beta-5c (unknown origin) using Ac-WLA-AMC as substrate and measured after 30 mins
T1 sequence (P28074 whole entry): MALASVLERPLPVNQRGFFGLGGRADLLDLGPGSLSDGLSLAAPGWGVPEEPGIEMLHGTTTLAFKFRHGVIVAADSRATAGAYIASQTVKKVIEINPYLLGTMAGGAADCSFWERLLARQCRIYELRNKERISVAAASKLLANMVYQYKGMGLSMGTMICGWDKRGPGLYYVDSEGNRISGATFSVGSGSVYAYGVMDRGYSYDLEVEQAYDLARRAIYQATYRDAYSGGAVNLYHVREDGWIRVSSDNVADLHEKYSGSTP

[3] = target: T2, Proteasome subunit beta type-8 (Homo sapiens, UniProt P28062); test: Inhibition of 20S proteasome subunit beta-5i (unknown origin) using Ac-ANW-AMC as substrate and measured after 30 mins
T2 sequence (P28062 whole entry): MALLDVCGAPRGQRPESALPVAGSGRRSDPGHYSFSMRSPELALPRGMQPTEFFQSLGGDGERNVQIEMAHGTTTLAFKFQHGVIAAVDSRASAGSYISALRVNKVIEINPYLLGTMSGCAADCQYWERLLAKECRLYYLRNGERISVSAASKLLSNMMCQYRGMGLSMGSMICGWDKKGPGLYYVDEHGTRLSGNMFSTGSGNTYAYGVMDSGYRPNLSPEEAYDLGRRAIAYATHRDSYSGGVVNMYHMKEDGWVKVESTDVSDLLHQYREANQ

[4] = test system: DOHH-2; test: Antiproliferative activity against human DOHH-2 cells assessed as growth inhibition at 0.2 uM measured after 72 hrs by MTT assay; format: functional; conditions: read-out: GI
[5] = test system: MCF7; test: Antiproliferative activity against human MCF7 cells assessed as growth inhibition at 0.2 uM measured after 72 hrs by MTT assay; format: functional; conditions: read-out: GI
[6] = test system: Pfeiffer; test: Antiproliferative activity against human Pfeiffer cells assessed as growth inhibition at 0.2 uM measured after 72 hrs by MTT assay; format: functional; conditions: read-out: GI
[7] = test system: HT-29; test: Antiproliferative activity against human HT-29 cells assessed as growth inhibition at 0.2 uM measured after 72 hrs by MTT assay; format: functional; conditions: read-out: GI
[8] = test system: HCT-116; test: Antiproliferative activity against human HCT-116 cells assessed as growth inhibition at 0.2 uM measured after 72 hrs by MTT assay; format: functional; conditions: read-out: GI

| Compound | Ratio IC50 [1] | IC50 [2] [nM] | IC50 [3] [nM] | inhibition of growth at 0.2 µM [4] [%] | inhibition of growth at 0.2 µM [5] [%] | inhibition of growth at 0.2 µM [6] [%] | inhibition of growth at 0.2 µM [7] [%] | inhibition of growth at 0.2 µM [8] [%] |
| --- | --- | --- | --- | --- | --- | --- | --- | --- |
| COc1cccc(CNC(=O)[C@H](Cc2ccccc2)NC(=O)[C@H](CCC(=O)NC(C)(C)C)NC(=O)CCNC(=O)CCl)c1 | 11 | – | – | – | – | – | – | – |
| COc1ccc(/C=C(\C#N)C(=O)NCCC(=O)N[C@@H](CCC(=O)NC(C)(C)C)C(=O)N[C@@H](Cc2ccccc2)C(=O)NCc2ccc(C)cc2)cc1 | 2 | – | – | < 20 | < 20 | 28 | < 20 | 32 |
| Cc1ccc(CNC(=O)[C@H](Cc2ccccc2)NC(=O)[C@H](CC(=O)NCC2CCCO2)NC(=O)[C@H](CNC(=O)CCl)NC(=O)CN2CCOCC2)cc1 (some centres undefined) | 3 | 430 | 138 | – | – | – | – | – |
| Cc1ccc(CNC(=O)[C@H](Cc2ccccc2)NC(=O)[C@H](CCC(=O)NC(C)(C)C)NC(=O)CCNC(=O)/C(C#N)=C/c2ccc(Cl)cc2)cc1 | 22 | – | – | < 20 | 43 | 34 | < 20 | 28 |
| Cc1ccc(CNC(=O)[C@H](Cc2ccccc2)NC(=O)[C@H](CCC(=O)NC(C)(C)C)NC(=O)CCNC(=O)/C(C#N)=C/c2nccs2)cc1 | 4 | – | – | 22 | < 20 | 22 | < 20 | < 20 |
| Cc1ccc(CNC(=O)[C@H](Cc2ccccc2)NC(=O)[C@H](CCC(=O)NC(C)(C)C)NC(=O)[C@H](CNC(=O)CCl)NC(=O)OC(C)(C)C)cc1 | 6 | – | – | < 20 | < 20 | 29 | 11 | 46 |
| Cc1[nH]c2ccc(CNC(=O)[C@H](Cc3ccccc3)NC(=O)[C@H](CCC(=O)NC(C)(C)C)NC(=O)CCNC(=O)CCl)cc2c1C | 27 | – | 36.5 | – | – | – | – | – |
| CC(C)(C)NC(=O)CC[C@H](NC(=O)CCNC(=O)CCl)C(=O)N[C@@H](Cc1ccccc1)C(=O)NCc1cccc(C(F)(F)F)c1 | 22 | – | 125 | – | – | – | – | – |
| Cc1ncsc1-c1ccc(CNC(=O)[C@H](Cc2ccccc2)NC(=O)[C@H](CCC(=O)NC(C)(C)C)NC(=O)CCNC(=O)CCl)cc1 | > 11 | > 5000 | – | – | – | – | – | – |
| CC(C)(C)NC(=O)CC[C@H](NC(=O)CCNC(=O)CCl)C(=O)N[C@@H](Cc1ccccc1)C(=O)NCc1ccc(OC(F)(F)F)cc1 | > 14 | > 5000 | – | – | – | – | – | – |
| COC(=O)C1CCN(C(=O)C[C@H](NC(=O)[C@H](CNC(=O)CCl)NC(=O)CN2CCOCC2)C(=O)N[C@@H](Cc2ccccc2)C(=O)NCc2ccc(C)cc2)CC1 | > 16 | > 644 | 644 | – | – | – | – | – |
| CC(C)(C)NC(=O)CC[C@H](NC(=O)CCNC(=O)CCl)C(=O)N[C@@H](Cc1ccccc1)C(=O)NCc1ccccc1C(F)(F)F | > 19 | > 5000 | – | – | – | – | – | – |

Continued, in another order:

| Ratio IC50 [1] | IC50 [2] [nM] | IC50 [3] [nM] | Compound | inhibition of growth at 0.2 µM [4] [%] | inhibition of growth at 0.2 µM [5] [%] | inhibition of growth at 0.2 µM [6] [%] | inhibition of growth at 0.2 µM [7] [%] | inhibition of growth at 0.2 µM [8] [%] |
| --- | --- | --- | --- | --- | --- | --- | --- | --- |
| 3 | 204 | 61.6 | CC[C@H](NC(=O)[C@H](CCC(=O)NC(C)(C)C)NC(=O)CCNC(=O)CCl)C(=O)NCc1ccc(C)cc1 | – | – | – | – | – |
| 2 | 79.4 | 43.9 | COC[C@H](NC(=O)[C@H](CCC(=O)NC(C)(C)C)NC(=O)CCNC(=O)CCl)C(=O)NCc1ccc(C)cc1 | – | – | – | – | – |
| 2 | 13.7 | 7.33 | Cc1ccc(CNC(=O)[C@H](Cc2c[nH]c3ccccc23)NC(=O)[C@H](CCC(=O)NC(C)(C)C)NC(=O)CCNC(=O)CCl)cc1 | < 20 | < 20 | 28 | < 20 | 29 |
| 12 | – | – | Cc1ccc(CNC(=O)[C@H](Cc2ccccc2)NC(=O)[C@H](CCC(=O)NC(C)(C)C)NC(=O)CCNC(=O)CCl)cc1 | 36 | < 20 | < 20 | < 20 | 49 |
| 6 | – | – | COC(=O)c1ccc(CNC(=O)[C@H](Cc2ccccc2)NC(=O)[C@H](CCC(=O)NC(C)(C)C)NC(=O)CCNC(=O)CCl)cc1 ({ClAc-βAla}-Glu(NHtBu)-Phe-[4Amb]-OMe) | – | – | – | – | – |
| 4 | 81.5 | – | Cc1ccc(CNC(=O)[C@H](Cc2ccccc2F)NC(=O)[C@H](CCC(=O)NC(C)(C)C)NC(=O)CCNC(=O)CCl)cc1 | – | – | – | – | – |
